{"source": "patent EP0663826B1", "about": "“AMINO ACIDS CONTAINING PARENTERAL FORMULATIONS FOR THE TREATMENT OF HYPOTENSION AND RELATED PATHOLOGIES” (BOARD OF REGENTS THE UNIVERSITY OF TEXAS SYSTEM, priority 1991, dated 1993)", "key": {"[1]": {"system": "hypotension associated with the administration of TNF in the dog", "assay": "TNF-induced hypotension in the dog", "assay_type": "in vivo, dogs", "details": "L-arginine to previously untreated normotensive dogs", "procedure": "Recombinant human TNF, specific activity 2 x 10^7 units/mg, was from the Dainippon Chemical Corporation, Tokyo, Japan. TNF was administered at a dose of 10 µg//kg in a volume of 10 ml of phosphate buffered saline containing 17 mg/ml of dog albumin. […] Arginine was obtained from Sigma Chemical Company, St. Louis, Mo.\nFour conditioned mongrel dogs, 2 males and 2 females, weighing 28 to 30 kg, were studied. Care of the animals were in accordance with the recommendations of the American Association for Accreditation of Laboratory Animals [DHEW(DHHS) publication no. (NIH) 78-23, revised, 1978]. On the day of the experiment, the dogs were fasted overnight. They were anesthetized with phenobarbital (25 mg/kg). The animals were then intubated orally with a #10 fr. endotracheal tube and ventilated with a Harvard pump ventilator at a rate of 14 breaths per minute and a tidal volume of 15 ml/kg. An arterial line was percutaneously placed in the femoral artery on the day of the experiment.\nMean (electronic) and phasic systemic arterial pressures (SAP) were continuously recorded on a Hewlett-Packard recording system (model 7758B) using strain gauge manometers (Hewlett-Packard model 1290A) which were connected to the arterial line. Heart rate (HR) was determined from an EKG tracing and continuously recorded on the Hewlett-Packard recording system. Oxyhemoglobin saturation (SaO2) was obtained using a pulse oximeter (BIOX 111, Boulder, CO). Continuous time-series records of SAP, HR, and SaO2 were obtained using a Lab Master analog-to-digital convertor (16 channel, 12 bit, 30 kHz; Scientific Solutions, Inc.) sampling at 55 Hz and storing the 6 sec averages on a magnetic disk."}, "[2]": {"system": "endotoxin-induced shock in dogs", "assay": "Endotoxin-induced hypotension in dogs (with nitroglycerin and control dogs)", "assay_type": "in vivo", "procedure": "Animals: Studies were carried out on 12 conditioned mongrel dogs (9 males and 3 females) weighing 22-32 kg (avg=25.3 kg). Animal care was in accordance with the recommendations of the American Association for Accreditation of Laboratory Animal Care, and met all standards prescribed by the Guide for the Care and Use of Laboratory Animals (Guide for the Care and Use of Laboratory Animals (1978) Dept. of Health, Education and Welfare, Washington, D.C. (Publ. No. 78-23). Animal protocols were approved by The University of Texas Animal Welfare committee. The dogs were fasted overnight prior to the day of experimentation. They were anesthetized with sodium pentobarbital (25 mg/kg i.v.). Dogs were then endotracheally intubated and ventilated with a piston-driven respirator (Harvard instruments) using room air at a tidal volume of 15 ml/kg and at a rate of 12 to 14 breaths per minute, adjusted to achieve a normal arterial pH and pCO2 (Instrumentation Laboratories lL1302 pH/Blood Gas Analyzer). Catheters were placed percutaneously into the femoral and pulmonary arteries; In the latter, a flow-directed thermal-dilation catheter was used (Abbott Critical Care Systems).\nPhysiologic measurements: Mean SAP and heart rate were continuously monitored (Parametron 7048 Monitoring System, Roche) and stored on a magnetic disk using an analog-to-digital converter (Scientific Solutions, Inc.). Cardiac output (CO) was determined as the mean of six measurements by thermal-dilution. Systemic vascular resistance was calculated as (SAP X80)/CO and expressed as dynes-sec/cm^5 (kg/s·cm^4).\nProtocol: After the blood pressure and heart rate stabilized, endotoxin (40 µg/kg, in 10 ml of phosphate-buffered saline (PBS), pH 7.4) was infused i.v. over 2 minutes. This dose of endotoxin typically induces severe and often lethal cardiovascular collapse in the dog. Blood pressure was monitored, and when either SAP fell below 60 mm Hg or a stable nadir in systemic arterial pressure (SAP) was maintained for 10 minutes, L-NMA was administered (20 mg/kg in 5 ml of PBS i.v. over 1 min.). In most experiments, L-arginine (400 mg/kg in 20 ml PBS) was administered ten minutes later by i.v. infusion over 2 minutes. In control experiments, dogs without prior exposure to endotoxin received L-NMA alone. To simulate the hypotension observed in dogs receiving endotoxin, one group of dogs received a continuous i.v. infusion of nitroglycerin (2 mg/ml) at a rate adjusted to maintain the SAP at 60-70 mm Hg. Nitroglycerin-treated dogs then received L-NMA (20 mg/kg) and 20 minutes later L-arginine was administered ([…]).\nStatistics: Statistical significance was evaluated using Student's test and either a one-tailed or two-tailed analysis as appropriate for comparisons."}}, "data": [{"smiles": "N=C(N)NCCC[C@H](N)C(=O)O", "note": "[L-arginine]", "values": [{"measurement": "effect on blood pressure", "setting": "[1]", "value": "not affected"}, {"measurement": "ΔSAP after L-arginine", "setting": "[2]; Figure 6 dog, endotoxin and 2 doses L-NMA", "value": -77, "unit": "mm Hg"}, {"measurement": "Cardiac Output", "setting": "[2]; Study 1: Endotoxin-treated dogs (n=4), means ± S.E., same sequence, baseline 2.99 ± 0.32", "value": "2.99 ± 0.32", "unit": "L/min"}, {"measurement": "Heart Rate", "setting": "[2]; Study 1: Endotoxin-treated dogs (n=4), means ± S.E., same sequence, baseline 119.5 ± 6.0", "value": "119.5 ± 6.0", "unit": "beats/min"}, {"measurement": "Systemic Vascular Resistance", "setting": "[2]; Study 1: Endotoxin-treated dogs (n=4), means ± S.E., same sequence, baseline 3565 ± 454", "value": "3565 ± 454", "unit": "dynes-sec/cm^5"}, {"measurement": "Systemic Arterial Pressure", "setting": "[2]; Study 1: Endotoxin-treated dogs (n=4), means ± S.E., sequence endotoxin 40 µg/kg, L-NMA 20 mg/kg, 10 min later L-arginine 400 mg/kg (measured 2 min later), baseline 128.3 ± 9.4", "value": "128.3 ± 9.4", "unit": "mmHg"}, {"measurement": "Systemic Vascular Resistance", "setting": "[2]; Study 1: Endotoxin-treated dogs (n=4), means ± S.E., value in brackets", "value": "3.565 ± 0.454", "unit": "Kg/s·cm^4"}, {"measurement": "Cardiac Output", "setting": "[2]; Study 2: Nitroglycerin-treated dogs (n=3), means ± S.E., baseline 3.14 ± 0.21", "value": "5.15 ± 1.08", "unit": "L/min"}, {"measurement": "Heart Rate", "setting": "[2]; Study 2: Nitroglycerin-treated dogs (n=3), means ± S.E., baseline 143.7 ± 12.1", "value": "148.7 ± 19.9", "unit": "beats/min"}, {"measurement": "Systemic Vascular Resistance", "setting": "[2]; Study 2: Nitroglycerin-treated dogs (n=3), means ± S.E., baseline 3294 ± 74", "value": "1088 ± 491", "unit": "dynes-sec/cm^5"}, {"measurement": "Systemic Arterial Pressure", "setting": "[2]; Study 2: Nitroglycerin-treated dogs (n=3), means ± S.E., continuous nitroglycerin (2 mg/ml) titrated to SAP 65 mm Hg, then L-NMA 20 mg/kg, then L-arginine, baseline 129.3 ± 10.2", "value": "57.0 ± 13.0", "unit": "mmHg"}, {"measurement": "Systemic Vascular Resistance", "setting": "[2]; Study 2: Nitroglycerin-treated dogs (n=3), value in brackets", "value": "1.088 ± 0.491", "unit": "Kg/s·cm^4"}, {"measurement": "effect on the pressor effect of L-NMA", "setting": "[2]; control dogs, L-arginine 400 mg/kg", "value": "fully reversed"}]}]}
